The values that follow are results of earlier work, collected in patent US20090022786A1, “Oral pharmaceutical dosage form and manufacturing method thereof” (YUNG SHIN PHARM. IND. CO., LTD., priority 2007, published 2009).

Each structure is given as a SMILES string. Where a name gives a salt, the structure may show the parent alone. Read-outs that look alike come from different tables or passages of the source. A value given as a limit tells only on which side of the number the result lay.

Assay in data set [1]: not given
This is another data set of the same source.

Data set [2] relates to gastric acid secretion. The note with it: oral.
Assay in data set [3]: not given
The source holds these as a separate data set.

Assay in data set [4]: not given
This is another data set of the same source.

Where [5] appears, read: as glucuronate- or sulfate-associated form.

Take `CCCCC(C)(O)C/C=C/[C@H]1[C@H](O)CC(=O)[C@@H]1CCCCCCC(=O)OC` (mixture of isomers) [Misoprostol, (±) methyl 11α,16-dihydroxy-16-methyl-9-oxoprost-13E-en-1-oate]: the “Stability at room temperature” value (room temperature) is reported as “very unstable”. Further, in data set [1] (in 24 hours), the “Fraction eliminated with urine” value is on record as 64-73%. Moreover, in data set [1] (in vivo), the Elimination half-life is 20 to 40 min and the “Fraction eliminated with the faeces” value was 15%. Moreover, in data set [1] (oral), the “Absorption after oral administration” value is “rapidly absorbed” and the “Time of maximum plasma concentration” value is 15 to 30 min. The “Time to inhibition of gastric acid secretion” value in data set [2] was no more than 30 min. Moreover, the Solubility in water result in data set [3] is recorded as “soluble”.
For `O=C(O)Cc1ccccc1Nc1c(Cl)cccc1Cl` [Diclofenac sodium, 2-[(2,6-dichlorophenyl)amino] benzene acetic acid, monosodium salt], in data set [4] (setting [5]), the “Fraction eliminated with the faeces after biliary secretion” value is given as 1/30 and the “Fraction eliminated with urine” value is on record as “⅔”. Moreover, in data set [4] (in vivo), the “Binding to plasma protein” value is listed as “More than 90%” and the Half-life is 60 to 120 min. In data set [4] (oral), the “Fraction entering systematic circulation” value is on record as 50-60%. In data set [4] (oral single dose of 50 mg), the “Peak value of plasma concentration” value is 1.5 µg/mL and the “Time of maximum plasma concentration” value was 1 to 2 h. Moreover, the “Stability to humidity and light” value (humidity and light) was “accessible to be destroyed by humidity and light”. For the same compound, in data set [3] (chloroform), the Solubility in chloroform entry is “extremely insoluble”. In addition, the Solubility in ethanol result in data set [3] (ethanol) was “soluble”. Also, in data set [3] (methanol), the Solubility in methanol result is “soluble”. For the same compound, the Solubility in water entry in data set [3] is listed as “somewhat”.
